Results as given in patent US8835501B2, “Pharmaceutical formulations of HDAC inhibitors” (TopoTarget UK Limited, priority 2005, dated 2014).
Values after ≈ are worked out from the molar mass of the structure shown. Values joined by “and” are separate entries in the source; they are usually repeats but may differ in a detail not shown here. Identical values can stand only once. Like-named read-outs stand apart in the source and are kept apart here.

Assays:
[1] = Dilution experiments of saturated HDACi/salt former solutions; format: physicochemical; details: for appearance after dilution with pH 7.4 phosphate buffer: 0.47 M and 0.314 M saturated samples
[2] = cited from earlier work
[3] = humans, given as a nutritional additive; cited from earlier work
[4] = Solubility enhancement with acidic and basic in situ salt formers (~[…])
[5] = Phase solubility for arginine and meglumine
[6] = Solubility of PXD-101 in demineralised water; format: physicochemical
[7] = pH solubility profile in buffered 25% w/v HP-β-CD; format: physicochemical
From the text: It was noted that zwitterions can be self-buffering and this effect caused some instability in the buffering capacity of the buffer systems at high pH. Therefore, the required pH could only be achieved by adjusting the pH of the system by the addition of 1 M NaOH.

[8] = Solubility enhancement with cyclodextrin and in situ salt formers; format: physicochemical
[9] = Plasma PK analysis after 30-min I.V. infusion in subjects with advanced cancer; format: in vivo, human
Procedure: Plasma PK analysis was performed for subjects of all dose groups on days 1 and 5 of cycle 1 following 30 minutes of I.V. infusion.

[10] = tested on: histone (H4 and/or H3) acetylation in peripheral blood mononuclear cells; assay: Pharmacodynamic analysis: histone acetylation in peripheral blood mononuclear cells; format: in vivo, human; details: intravenous administration
From the text: Histones were isolated and probed with anti-acetylated histone (H4 and/or H3) antibody followed by HRP-secondary antibody.

[11] = Oral administration of PXD-101 (gelatin capsule) to subjects; format: in vivo, human
From the text: Several subjects received PXD-101 in an oral formulation (e.g., PXD-101 in a gelatin capsule). […] Bioavailability for the oral formulation was approximately 33%.

[12] = human, in vivo, iv
physchem = details: thermodynamic from solid, PXD-101 Concentration
[13] = Solubility enhancement with cyclodextrins (saturated PXD-101 samples; HP-β-CD phase solubility); format: physicochemical; details: saturated PXD-101 in aqueous cyclodextrin 250 mg/mL (α-CD 100 mg/mL)
Procedure: Saturated samples of PXD-101 were prepared in aqueous solutions of two natural cyclodextrins (α-CD and γ-CD) and hydroxypropyl derivatives of the α, β and γ cyclodextrins (HP-α-CD, HP-β-CD and HP-γ-CD). […] The calculated saturated solubilities of the complexed HDACi were plotted against the concentration of cyclodextrin. […] This type of phase solubility diagram for cyclodextrins is referred to as an A-Type phase solubility plot. […] This deviation may be due to experimental error caused by the decision to use of mass, instead of volume, to dispense the more concentrated cyclodextrin samples due to their viscosity. Alternatively, it is possible that there is a slight deviation from the linear A-Type phase solubility behaviour.

[14] = PXD-101 in basic in situ salt former, […]
[15] = PXD-101 in acidic in situ salt former, […]
[16] = 150 mg/m^2, 30-min I.V. infusion, cycle 1
[17] = 300 mg/m^2, 30-min I.V. infusion, cycle 1
[18] = 600 mg/m^2, 30-min I.V. infusion, cycle 1
[19] = 900 mg/m^2, 30-min I.V. infusion, cycle 1
[20] = 1200 mg/m^2, 30-min I.V. infusion, cycle 1

N=C(N)NCCC[C@H](N)C(=O)O [Arginine, (S)-2-amino-5-[(aminoiminomethyl)-amino]pentanoic acid]
appearance after dilution with pH 7.4 phosphate buffer [1]: initially clear solutions but some crystallisation | content of saturated aqueous solution ([2]; water, 21° C.): 15 % w/w | well tolerated dose [3]: up to 30 g/kg

OCCNCCO [Diethanolamine]
pH of Solution [4, 14]: 9.13

NCCN [Ethylenediamine]
dilution of saturated HDACi solution to infusion concentration of […] ([1]; basic salt former solutions diluted with 5% w/v glucose and 0.9% w/v saline): incompatibility

O=C(O)[C@H](O)[C@@H](O)[C@H](O[C@@H]1O[C@H](CO)[C@H](O)[C@H](O)[C@H]1O)[C@H](O)CO [Lactobionic Acid]
pH of Solution [4, 15]: 2.43

NCCCC[C@H](N)C(=O)O [Lysine]
pH of Solution [4]: 9.11

O=C(O)/C=C\C(=O)O [Maleic Acid]
pH of Solution [4, 15]: 1.65

O=C(O)CC(O)C(=O)O (centres unmarked) [Malic Acid]
pH of Solution [4, 15]: 2.19 | S/D Molar ratio (salt former-to-HDACi) ([4]; acidic in situ salt former, […]): 309

CNC[C@H](O)[C@@H](O)[C@H](O)[C@H](O)CO [Meglumine, 1-deoxy-1-(methylamino)-D-glucitol]
appearance after dilution with pH 7.4 phosphate buffer [1]: turbid solutions | solubility in water ([2]; 25° C.): ~100 g in 100 mL | pH of saturated HDACi solution ([5]; basic salt ×1, 0.157 M): 9.20 | pH of saturated HDACi solution ([5]; basic salt ×2, 0.314 M): 9.33 | pH of saturated HDACi solution ([5]; basic salt ×3, 0.47 M): 9.40 | Predicted Salt Former Conc. to achieve target PXD-101 Conc. ([5]; target PXD-101 50 mg/mL): 79.2 mg/mL | Predicted Salt Former Conc. to achieve target PXD-101 Conc. ([5]; target PXD-101 70 mg/mL): 126.9 mg/mL | Predicted Salt Former Conc. to achieve target PXD-101 Conc. ([5]; target PXD-101 100 mg/mL): 158.3 mg/mL

O=C(/C=C/c1cccc(S(=O)(=O)Nc2ccccc2)c1)NO [PXD-101, N-hydroxy-3-(3-phenylsulfamoyl-phenyl)-acrylamide]
solubility [6]: 0.14 mg/mL (≈ 0.44 mM) | PXD-101 Conc. ([7]; pH adjusted with 1M NaOH, actual pH 8.91): 36.0 mg/mL | PXD-101 Conc. ([7]; target pH 4, actual pH 4.35): 14.5 mg/mL | PXD-101 Conc. ([7]; target pH 6, actual pH 5.99): 17.3 mg/mL | PXD-101 Conc. ([7]; target pH 7.4, actual pH 7.28): 18.8 mg/mL | PXD-101 Conc. ([7]; target pH 9.5, actual pH 8.09): 19.4 mg/mL | PXD-101 Concentration ([8]; 25% w/v HP-β-CD + arginine 0.157 M (27.4 mg/mL)): 39.2 mg/mL | PXD-101 Concentration ([8]; 25% w/v HP-β-CD + arginine 0.314 M (54.8 mg/mL)): 57.1 mg/mL and 57.0 mg/mL | PXD-101 Concentration ([8]; 25% w/v HP-β-CD + meglumine 0.157 M (30.7 mg/mL)): 43.0 mg/mL | PXD-101 Concentration ([8]; 25% w/v HP-β-CD + meglumine 0.314 M (61.4 mg/mL)): 62.5 mg/mL | enhancement of HDACi solubility ([8]; using one or more of cyclodextrin, arginine, meglumine): ~500 fold | AUC0-t/AUC0-∞ [9, 16]: 99.0 ± 0.7% | AUCday 5/AUCday 1 [9, 16]: 115 ± 22% | CLs [9, 16]: 122.6 ± 30.6 L/hr/m^2 | Vd [9, 16]: 115.1 ± 43.5 L/m^2 | AUC0-t/AUC0-∞ [9, 17]: 99.7 ± 0.1% | AUCday 5/AUCday 1 [9, 17]: 112 ± 21% | CLs [9, 17]: 94.6 ± 34.9 L/hr/m^2 | Vd [9, 17]: 88.8 ± 31.8 L/m^2 | AUC0-t/AUC0-∞ [9, 18]: 99.9 ± 0.0% | AUCday 5/AUCday 1 [9, 18]: 97% | CLs [9, 18]: 59.6 ± 16.0 L/hr/m^2 | Cmax [9, 18]: 31177 ± 8968 ng/mL | Vd [9, 18]: 57.6 ± 13.9 L/m^2 | AUC0-t/AUC0-∞ [9, 19]: 99.8 ± 0.1% | CLs [9, 19]: 63.5 ± 16.4 L/hr/m^2 | Vd [9, 19]: 48.8 ± 9.8 L/m^2 | AUC0-t/AUC0-∞ [9, 20]: 99.8 ± 0.1% | CLs [9, 20]: 66.6 ± 33.5 L/hr/m^2 | Vd [9, 20]: 90.2 ± 87.3 L/m^2 | accumulation on repeated dosing ([9]; I.V. days 1 to 5): no HDACi accumulation | dose dependence of plasma levels and AUC ([9]; I.V., 150-1200 mg/m^2): dose proportional | AUC(0-t) ([9]; human, plasma, iv, 150 mg/m^2, 30-min I.V. infusion, cycle 1): 1270 ± 272 ng·h/mL | Cmax ([9]; human, plasma, iv, 150 mg/m^2, 30-min I.V. infusion, cycle 1, read-out: Cmax): 6560 ± 2160 ng/mL | half-life ([9]; human, plasma, iv, 150 mg/m^2, 30-min I.V. infusion, cycle 1, read-out: t1/2): 46.6 ± 8.7 min | AUC(0-t) ([9]; human, plasma, iv, 300 mg/m^2, 30-min I.V. infusion, cycle 1): 3500 ± 1100 ng·h/mL | Cmax ([9]; human, plasma, iv, 300 mg/m^2, 30-min I.V. infusion, cycle 1, read-out: Cmax): 15500 ± 6240 ng/mL | half-life ([9]; human, plasma, iv, 300 mg/m^2, 30-min I.V. infusion, cycle 1, read-out: t1/2): 44.6 ± 8 min | AUC(0-t) ([9]; human, plasma, iv, 600 mg/m^2, 30-min I.V. infusion, cycle 1): 10700 ± 3010 ng·h/mL | half-life ([9]; human, plasma, iv, 600 mg/m^2, 30-min I.V. infusion, cycle 1, read-out: t1/2): 43.4 ± 6.7 min | AUC(0-t) ([9]; human, plasma, iv, 900 mg/m^2, 30-min I.V. infusion, cycle 1): 14700 ± 3410 ng·h/mL | Cmax ([9]; human, plasma, iv, 900 mg/m^2, 30-min I.V. infusion, cycle 1, read-out: Cmax): 53800 ± 6380 ng/mL | half-life ([9]; human, plasma, iv, 900 mg/m^2, 30-min I.V. infusion, cycle 1, read-out: t1/2): 54.2 ± 8.7 min | AUC(0-t) ([9]; human, plasma, iv, 1200 mg/m^2, 30-min I.V. infusion, cycle 1): 22000 ± 11000 ng·h/mL | Cmax ([9]; human, plasma, iv, 1200 mg/m^2, 30-min I.V. infusion, cycle 1, read-out: Cmax): 52400 ± 12700 ng/mL | half-life ([9]; human, plasma, iv, 1200 mg/m^2, 30-min I.V. infusion, cycle 1, read-out: t1/2): 85.5 ± 19.6 min | half-life ([9]; human, plasma, iv, I.V., across dose levels 150-1200 mg/m^2, read-out: elimination half-life): 47 to 86 min | time after administration at which increased acetylated histones could be detected [10]: up to 24 hours | plasma levels, oral versus intravenous ([11]; 900 and 1200 mg/m^2, FIG. 12): remain higher when dosed orally | bioavailability ([11]; human, plasma, oral formulation (gelatin capsule)): ~33% | tolerability ([11]; oral dosing, preliminary data): good tolerability | laboratory tests / hematological toxicity [12]: no hematological toxicity was identified | main HDACi-related adverse events [12]: fatigue, nausea, vomiting (infusion-related), and phlebitis | other adverse events [12]: headache, diarrhea, constipation, and dyspnea | solubility thermodynamic (physchem; pH 9.07, aqueous with cosolvent or surfactant or cyclodextrin): 13.5 mg/mL (≈ 42.4 mM) | solubility thermodynamic (physchem; pH 9.1, aqueous with cosolvent or surfactant or cyclodextrin): 7.9 mg/mL (≈ 24.8 mM) | solubility thermodynamic (physchem; pH 9.19, aqueous with cosolvent or surfactant or cyclodextrin): 31.1 mg/mL (≈ 97.7 mM) | solubility thermodynamic (physchem; pH 9.2, aqueous with cosolvent or surfactant or cyclodextrin): 21.2 mg/mL (≈ 66.6 mM) | solubility thermodynamic (physchem; pH 9.33, aqueous with cosolvent or surfactant or cyclodextrin): 39.1 mg/mL (≈ 123 mM) | solubility thermodynamic (physchem; pH 9.4, aqueous with cosolvent or surfactant or cyclodextrin): 57.3 mg/mL (≈ 180 mM)

NC(CO)(CO)CO [Tris]
pH of Solution [4, 14]: 8.97

OC[C@H]1O[C@@H]2O[C@H]3[C@H](O)[C@@H](O)[C@@H](O[C@H]4[C@H](O)[C@@H](O)[C@@H](O[C@H]5[C@H](O)[C@@H](O)[C@@H](O[C@H]6[C@H](O)[C@@H](O)[C@@H](O[C@H]7[C@H](O)[C@@H](O)[C@@H](O[C@H]1[C@H](O)[C@H]2O)O[C@@H]7CO)O[C@@H]6CO)O[C@@H]5CO)O[C@@H]4CO)O[C@@H]3CO [α-CD, α-cyclodextrin]
HDACi (PXD-101) Concentration [13]: 0.65 mg/mL
